Assay results taken from patent US6964959B2, “Use of a methylol-containing compound to treat tumors” (Carter Wallace, Inc., priority 1999, dated 2005).
Entries after “also recorded” stand apart in the source; their conditions may differ.

What was measured:
[1] = system: NIH-3T3; assay: Flow cytometry cell cycle distribution / DNA debris, NIH-3T3; format: cell-based, murine
Procedure: (§1) Three×10^5 cells were seeded in plastic tissue culture flasks. […] Control cultures received an appropriate volume of Kollidine-17P. […] The percentage of DNA debris in the sub-G0/G1 region was assessed using cytofluorometric techniques. Each bar represents the mean (±SE) of three determinations. **p≦0.01, ***p≦0.001, ****p≦0.0001
For flow cytometry studies, 1×10^6 PA-1, SKOV-3, or NIH-3T3 cells were incubated for 24 h in appropriate media containing serum. […] Control cultures for each cell line were incubated in media containing 40 μl of 5% Kollidon 17PF alone. […] For example, harvested cells were resuspended in ice cold phosphate-buffered saline at a final cell density of 2×10^6 cells/ml. The cells then were stained for 30 min at room temperature in the dark with a solution of 0.05 mg/ml propidium iodide, 0.6% Igepal, and 1% sodium citrate. Flow cytometry was performed by FACScan (Becton Dickinson, Plymouth, England) using the ModFit LT program (Becton Dickinson). Statistical analysis was performed with the Kruskal Wallis non-parametric ANOVA test followed by Dunn's multiple comparisons test using Instat.
(§2) Three×10^5 cells were seeded in plastic tissue culture flasks. […] Control cultures received an appropriate volume of Kollidine-17P. After an additional 48 h, cells were harvested, stained with propidium iodide, and cell cycle distribution assessed using cytofluorometric techniques. Each value represents the percentage of cells in the noted cell cycle phases and is the mean±SEM of three determinations.

[2] = system: 3T3 cells; assay: DNA fragmentation, normal 3T3 cells; format: cell-based
Source text: (§3) This DNA fragmentation was not observed in normal 3T3 cells.

[3] = system: HL-60 human promyelocytic cell line; assay: Apoptosis induction in HL-60 cells; format: cell-based; conditions: non-adherent cancer cell models
[4] = system: human ovarian tumor cells; assay: Growth of established human ovarian tumor cell colonies; format: cell-based; conditions: 24-hour exposure to 50 μM; discrete colonies
Procedure: (§4) Parallel studies were carried out to assess whether disruption of cell adhesion played a role in the cytotoxic activity.

[5] = system: MDR-transfected glioblastoma cells; assay: Cytotoxicity in MDR-transfected glioblastoma cells; conditions: dose of 50 μM
Source text: The neoplastic cell lines used in the survey were standard tumor cell lines, e.g., PA1 human ovarian cell line, SKOV3 human ovarian cell line, HT29 human colon tumor cell line, DU145 human prostate tumor cell line, U251 human glioblastoma cell line, U251-MDR human glioblastoma cell line transfected with DNA encoding MDR, T98G human glioblastoma cell line, SP-1 human leukemia cell line, and Daudi human leukemia cell line.
Glioblastoma cells were transfected with a gene encoding multiple drug resistance (MDR).

[6] = system: PA-1; assay: Flow cytometry cell cycle distribution / DNA debris, PA-1; format: cell-based, human
Procedure: Three×10^5 cells were seeded in plastic tissue culture flasks. […] Control cultures received an appropriate volume of Kollidine-17P. […] The percentage of DNA debris in the sub-G0/G1 region was assessed using cytofluorometric techniques.
(§5) For flow cytometry studies, 1×10^6 PA-1, SKOV-3, or NIH-3T3 cells were incubated for 24 h in appropriate media containing serum. […] Control cultures for each cell line were incubated in media containing 40 μl of 5% Kollidon 17PF alone. Forty-eight hours later, all cells were harvested by trypsinization and prepared for cytofluorometric analysis by standard methods. For example, harvested cells were resuspended in ice cold phosphate-buffered saline at a final cell density of 2×10^6 cells/ml. The cells then were stained for 30 min at room temperature in the dark with a solution of 0.05 mg/ml propidium iodide, 0.6% Igepal, and 1% sodium citrate. Flow cytometry was performed by FACScan (Becton Dickinson, Plymouth, England) using the ModFit LT program (Becton Dickinson). Statistical analysis was performed with the Kruskal Wallis non-parametric ANOVA test followed by Dunn's multiple comparisons test using Instat.
as §2

[7] = system: PA1 human ovarian cells; assay: DNA fragmentation, PA1 human ovarian cells; format: cell-based
Source text: as §3

[8] = system: human and murine tumor cell lines; assay: Growth inhibition, panel of selected human and murine tumor cell lines; format: cell-based; conditions: 72 h; 3 d exposure; panel of 12 selected human and murine tumor cell lines; read-out: IC50s, growth inhibition across all cell lines evaluated
Procedure: One ml of this cell suspension was added to each well of a 12 well cell culture plate that contained 3 ml of appropriate media plus serum. […] Control wells received 40 μl of 5% Kollidon 17PF alone. Seventy-two hours later, all cells were harvested by trypsinization and cell number determined electronically using a Coulter Model Z1 particle counter (Coulter Corp., Miami, Fla.) to assess cell growth inhibition. Each experiment was performed in duplicate and repeated a minimum of three times.
Cells were seeded at a density of 1-5×10^4 cells in each well of a 6 well tissue culture flask. […] After three days, cells were harvested by trypsinization and cell number determined electronically. Cell growth inhibition was determined by comparison to non-Taurolidine exposed control cultures. The IC50 was calculated as the concentration required to inhibit cell number by 50%.

[9] = system: PARP; assay: Western-blot analysis of PARP cleavage, NIH-3T3 cells; format: cell-based, murine; conditions: 24 h exposure to 50 or 100 μM
Procedure: Two×10^6 cells were seeded in 150 cm^2 tissue culture flasks. […] After an additional twenty-four hours, cells were harvested, cell number determined, and aliquots derived from equal cell numbers generated from each exposure condition. Total proteins from these whole cell lysates were separated by SDS-PAGE and transferred to nitrocellulose filters. Filters were then immunoblotted to detect intact PARP protein and cleavage fragments by using the clone C-2-10 mouse monoclonal anti-PARP antibody (Zymed Laboratories, San Francisco, Calif.). The resulting protein-antibody complexes were visualized by chemiluminescence techniques.
Western-blot analysis was used to assess of PARP cleavage. Two×10^6 cells were seeded into separate 75 cm^2 tissue culture flasks containing 20 ml of tissue culture media plus serum. […] Twenty-four hours after the addition of Taurolidine, cells were harvested, cell number determined, and aliquots containing an equal cell number were generated from each exposure condition. Total proteins from whole cell lysates generated from these aliquots were separated by SDS-PAGE and electrotransferred to nitrocellulose filters. Filters were then processed to detect intact PARP protein and cleavage fragments by using the clone C-2-10 mouse monoclonal anti-PARP antibody (Zymed Laboratories, San Francisco, Calif.). […]

[10] = Clinical tolerability in ovarian tumor and glioblastoma patients; format: in vivo, human; conditions: i.p. lavage after surgery for recurrent ovarian tumors; systemic in glioblastoma
Procedure: Taurolidine was administered by i.p. lavage immediately following surgery for removal of recurrent ovarian tumors. For patients with glioblastoma, Taurolidine was administered systemically.
Taurolidine was administered by i.p. lavage immediately following surgery for removal of recurrent ovarian tumors. For patients with glioblastoma, taurolidine was administered systemically.

[11] = system: human cancer cell lines; assay: Growth inhibition of human cancer cell lines, 3-day exposure; format: cell-based; conditions: 72 h, read-out: concentration required to inhibit tumor cell growth (IC50)
Procedure: as §4

[12] = system: SKOV-3; assay: Flow cytometry cell cycle distribution / DNA debris, SKOV-3; format: cell-based, human; conditions: 48 h exposure
Procedure: as §1
as §5, with “Statistical analysis was performed with the Kruskal Wallis non-parametric ANOVA test followed by Dunn's multiple comparisons test using Instat.” left out
Three×10^5 cells were seeded in plastic tissue culture flasks. […] After an additional 48 h, cells were harvested, stained with propidium iodide, and cell cycle distribution assessed using cytofluorometric techniques. […]

Compound: O=S1(=O)CCN(CN2CCS(=O)(=O)NC2)CN1 [Taurolidine, Bis-(1,1-dioxoperhydro-1,2,4-thiadiazinyl-4)methane]
- cell cycle kinetics and distribution ([1]; 3T3, 24-hour exposure): significantly reduced the percentage of cells in both the S- and G2/M-phases
- effect on cell cycle distribution ([1]; NIH-3T3, 48 h exposure): increased the percentage of cells in S-phase, decreased the percentage of cells in G0/G1; also recorded: decreased the percentage of cells in G0/G1 and increased the percentage of cells in S
- DNA debris in the sub-G0/G1 region ([1]; NIH-3T3, 48 h exposure, 25-100 μM): did not increase DNA debris; also recorded: did not significantly affect the appearance of DNA debris
- DNA fragmentation ([2]; 3T3, 24-hour exposure): not observed
- DNA fragmentation by agarose-gel electrophoresis ([2]; 3T3 cells, identical regimen (50 μM)): not apparent
- apoptotic signalling events after exposure [3]: activation of caspases 3, 8 and 9
- cytotoxic effect against the growth of established tumor cells [4]: significant cytotoxic effect
- cytotoxicity [5]: Significant cytotoxicity
- cell cycle kinetics and distribution ([6]; PA1, 24-hour exposure): significantly reduced the percentage of cells in both the S- and G2/M-phases
- effect on cell cycle distribution ([6]; PA-1, 48 h exposure, up to 100 μM): little effect on the cell cycle; also recorded: little effect on cell cycle distribution
- DNA debris in the sub-G0/G1 region ([6]; PA-1, 48 h exposure, 25-100 μM): significantly increased DNA debris; also recorded: resulted in the appearance of DNA debris
- DNA fragmentation ([7]; PA1, 24-hour exposure): induced a high degree of DNA fragmentation
- DNA fragmentation by agarose-gel electrophoresis ([7]; ovarian tumor cells, 50 μM): overt DNA fragmentation
- IC50 [8]: 9.6 to 34.2 µM
- PARP cleavage [9]: little evidence of this proteolytic event
- PARP cleavage ([9]; listed as taurolidine): PARP cleavage was not evident
- tolerability in patients [10]: well tolerated
- IC50 [11]: 12.5 to 50 µM
- effect on cell cycle distribution [12]: reduced the percentage of cells in the G0/G1-phase and increased the percentage of cells in both S and G2/M; also recorded: concentration-dependent decrease in the percentage of cells in G0/G1 but increased the percentage of cells in both the S-phase and G2/M
- DNA debris in the sub-G0/G1 region ([12]; 25-100 μM): significantly increased DNA debris; also recorded: resulted in the appearance of DNA debris
